In PubChem BioAssay AID1996:
Converted amounts (≈) assume the structure as drawn.

Conditions: buffer; pH 7.4; 200.0 µM

Compound	solubility kinetic
O=C(O)/C=C/C(=O)Nc1ccc(O)cc1	> 31.1 µg/mL
C=Cn1cc[n+](CC(=O)c2ccc(OC)c(OC)c2)c1.[Br-]	> 53 µg/mL
N#Cc1c(-c2ccccc2)nc(N2CCN(Cc3ccccc3)CC2)[nH]c1=O	> 55.7 µg/mL
Cc1ccccc1C(=O)NC(CC(C)C)C(=O)NCC(C)(C)N1CCOCC1 (stereo unspecified)	> 58.4 µg/mL
O=C(Nc1cccc(O)c1)c1cc(-c2cccs2)on1	1.3 µg/mL (≈ 4.54 µM)
O=C(O)CNC(=O)/C=C/c1c(Cl)cccc1Cl	> 41.1 µg/mL
O=C(/C=C/c1ccccc1)Nc1cccnc1Cl	38.8 µg/mL (≈ 150 µM)
O=C(N1CCOCC1)N1CCN(S(=O)(=O)c2ccc(Cl)cc2)C1	44.5 µg/mL (≈ 124 µM)
COC(=O)CN1CC(=O)N(c2ccccc2)C1=S	> 39.6 µg/mL
Cn1nccc1NS(=O)(=O)c1ccc(NC(=O)C(F)(F)F)cc1	> 52.2 µg/mL
O=C(Nc1cccc(Cl)c1)N1C[C@H]2C[C@@H](C1)c1cccc(=O)n1C2	> 51.6 µg/mL
CN1C(C)(C)CC(NC(=O)c2ccco2)CC1(C)C	> 39.7 µg/mL
Cc1cc(Cl)c2ccc(Cl)cc2n1	< 0.5 µg/mL
CCNc1nc(NC(C)C)nc(N(C#N)C(C)C(=O)N(CC)CC)n1 (stereo unspecified)	> 52.3 µg/mL
Cc1cccc(C)c1NC(=O)CNC(=O)c1c(C)nn(C)c1Cl	> 50.2 µg/mL
c1ccc2c(CN3CCSCC3)cccc2c1	4.2 µg/mL (≈ 17.3 µM)
NS(=O)(=O)c1ccc(CNC(=O)/C=C/c2cccc([N+](=O)[O-])c2)cc1	14.2 µg/mL (≈ 39.3 µM)
CCOC(=O)c1sc(=S)n(CC)c1NC(=O)c1ccccc1C	3.4 µg/mL (≈ 9.7 µM)
COc1cccc(CNC(=S)Nc2cccc(Cl)c2C)c1	29.9 µg/mL (≈ 93.2 µM)
Cc1ccc(SCc2cn3cc(Cl)ccc3n2)cc1	2.9 µg/mL (≈ 10 µM)
CC(CC(=O)O)CC(=O)Nc1cccc([N+](=O)[O-])c1 (stereo unspecified)	> 39.9 µg/mL
CC1(C)N([O-])C2=C(CCCC2)[N+]1=O	> 27.3 µg/mL
COc1cc(S(=O)(=O)n2cnc3ccccc32)ccc1Br	> 55.1 µg/mL
Cc1ccsc1C(=O)OCC(=O)NC1CCCC(C)C1C (stereo unspecified)	11.3 µg/mL (≈ 36.5 µM)
O=C1CC(N2CCSCC2)C(=O)N1c1ccc(F)cc1 (stereo unspecified)	> 44.2 µg/mL

Compound	solubility kinetic
CCCn1c(=S)[nH]c2cc(Cl)ccc21	32.3 µg/mL (≈ 142 µM)
COc1ccc(NC(=O)CN2CCN(c3ccccc3C)CC2)cc1	35.5 µg/mL (≈ 105 µM)
CC(=O)Nc1ccc(NC(=O)COc2ccc(Cl)cc2Cl)cc1	1 µg/mL (≈ 2.83 µM)
Cc1ccccc1CSc1ncnc2ccccc12	0.3 µg/mL (≈ 1.13 µM)
Cc1ccc(NC(=S)NC(=O)C2CC2)c(C)c1	5.9 µg/mL (≈ 23.8 µM)
CC(=O)Nc1ccc(NC(=O)C(C)OC(=O)CC23CC4CC(CC(Br)(C4)C2)C3)cc1 (stereo unspecified)	> 71.6 µg/mL
O=C(CN1CCCCCC1)NCc1ccccc1	34.8 µg/mL (≈ 141 µM)
COc1cccc(CNCc2ccco2)c1O.O=C(O)C(=O)O	> 48.5 µg/mL
CCc1ccc(N2CCN(CCNC(=O)Nc3ccccc3)CC2)cc1	1.3 µg/mL (≈ 3.69 µM)
C=CCN(CC=C)C(=O)C[n+]1ccc(C(N)=O)cc1.[Cl-]	> 44.4 µg/mL
O=C(c1cc2ccccc2o1)N1CC=C(c2ccccc2)CC1	5.1 µg/mL (≈ 16.8 µM)
CC(Sc1nc(N)cc(N)n1)C(=O)NCC1CCCO1 (stereo unspecified)	> 44.6 µg/mL
CC(=O)NC(CC(=O)O)c1ccc(F)cc1 (stereo unspecified)	> 33.8 µg/mL
Cc1cc(Cl)ccc1NC(=O)/C=N/O	> 31.9 µg/mL
CCCCn1c(N)c(N(CC)C(=O)COc2ccc(C#N)cc2)c(=O)[nH]c1=O	15.6 µg/mL (≈ 40.5 µM)
O=C(c1ccc(Cl)c(S(=O)(=O)N2CCOCC2)c1)N1CCCC1	> 53.8 µg/mL
O=C(Nc1ccccc1F)c1ccc2c(c1)OCO2	> 38.9 µg/mL
Cc1nccn1CC(=O)N/N=C/c1cc(Br)cs1	> 49.1 µg/mL
C=Cn1ccnc1CC(O)c1ccc(OC)cc1 (stereo unspecified)	33.9 µg/mL (≈ 139 µM)
O=C(O)Cn1cc(CN2CCOCC2)c2ccccc21	30 µg/mL (≈ 109 µM)
Cc1ccc2nsnc2c1NC(=O)c1cncc(Br)c1	16.3 µg/mL (≈ 46.7 µM)
Nc1ccc2nc3c(c(Cl)c2c1)CCCC3	25.1 µg/mL (≈ 108 µM)
C[C@@H](C(=O)N1CCN(c2ccccc2)CC1)N1C(=O)C2CC=CCC2C1=O (stereo partly specified)	> 55.1 µg/mL
CCCn1c(N)c(N2CCCCC2)c(=O)n(CC(=O)Nc2cccc(S(=O)(=O)N(C)C)c2)c1=O	68.3 µg/mL (≈ 139 µM)
Cc1ccc2c(C)c(C(=O)NCCN3CCCC(O)C3)oc2c1C (stereo unspecified)	42.3 µg/mL (≈ 128 µM)

Compound	solubility kinetic
O=C(Nc1csc(Cl)c1)c1ccccc1	6.2 µg/mL (≈ 26.1 µM)
CCCOc1ccc(NC(=O)c2cc3cc(C)ccc3[nH]2)cc1	< 0.3 µg/mL
O=C(CNc1cccc([N+](=O)[O-])c1)NCCCc1ccccc1	8 µg/mL (≈ 25.5 µM)
CC(C)NC(=S)NCc1cccs1	> 32.2 µg/mL
Cc1ccc(N2C(=O)CC(Sc3ncccn3)C2=O)cc1C (stereo unspecified)	27.7 µg/mL (≈ 88.4 µM)
CN1CCC(NC(=O)c2ccncc2)CC1	29.4 µg/mL (≈ 134 µM)
Cc1ccccc1/C=C/C12NC(=O)CN1c1ccccc1C2(C)C (stereo unspecified)	1 µg/mL (≈ 3.14 µM)
O=[N+]([O-])c1cc(Cl)ccc1Sc1ccccn1	23.3 µg/mL (≈ 87.4 µM)
CN1C(=S)SC2CS(=O)(=O)CC21 (stereo unspecified)	> 33.5 µg/mL
COc1ccc(NC(=O)NC(c2ccccc2)c2ccccc2)c(OC)c1	< 0.4 µg/mL
CCCNC(=S)N1CCC(Cc2ccccc2)CC1	28.3 µg/mL (≈ 102 µM)
CC(=O)c1cccc(NC(=O)Nc2nc(C)cc(C)n2)c1	1.8 µg/mL (≈ 6.33 µM)
OC(CN1CCc2ccccc2C1)c1ccccc1 (stereo unspecified)	> 38 µg/mL
CCO/C=C1\C(=O)N(c2ccc(OCC)cc2)C(=O)c2ccccc21	> 50.6 µg/mL
COC(=O)[C@H](CC(C)C)NC(=O)Nc1ccccc1F	> 42.3 µg/mL
Cc1ccc(NS(=O)(=O)c2c(C)noc2C)cc1	> 39.9 µg/mL
Cc1cc(NC(=O)COc2ccc3ccccc3c2)no1	0.6 µg/mL (≈ 2.13 µM)
O=C(c1ccccc1)C(C(=O)N1CCCCC1)n1ccccc1=O (stereo unspecified)	> 48.7 µg/mL
O=S(=O)(c1ccc(-c2ccccc2)cc1)N1CCCC1	3 µg/mL (≈ 10.4 µM)
COc1ccc(-n2c(C)c(C)c3c(NCCCO)ncnc32)cc1	> 49 µg/mL
NC(=S)/N=C/c1c(O)[nH]c(=O)[nH]c1=O	15.6 µg/mL (≈ 72.8 µM)
CSc1cccc(NC(=S)NC(=O)c2cccnc2)c1	5.1 µg/mL (≈ 16.8 µM)
O=c1cc(O)c2ccccc2n1Cc1ccccc1F	> 40.4 µg/mL
Cc1ccc(S(=O)(=O)N2CCN(C(=O)COC(=O)c3cc([N+](=O)[O-])ccc3NCCO)CC2)c(C)c1	17 µg/mL (≈ 32.7 µM)
Nc1cccnc1Sc1ccccc1	28 µg/mL (≈ 138 µM)

Compound	solubility kinetic
CCN(CC(=O)NCc1ccco1)S(=O)(=O)c1ccc(F)cc1	> 51.1 µg/mL
CC(C)C1(CCNC(=O)c2cccs2)CCOC(C)(C)C1 (stereo unspecified)	42 µg/mL (≈ 136 µM)
COc1ccc(C(=O)C23CN4CN(CN(C4)C2)C3)cc1	> 41 µg/mL
COc1cccc(CC(=O)NC2CCSc3ccccc32)c1 (stereo unspecified)	20.9 µg/mL (≈ 66.7 µM)
CCOC(=O)c1cc(NC(=O)CCC(=O)O)ccc1N1CCCCC1	51.3 µg/mL (≈ 147 µM)
O=[N+]([O-])c1cnccc1Nc1ccc(Cl)cc1	16.6 µg/mL (≈ 66.5 µM)
O=C(Cc1ccccc1)Nc1cc([N+](=O)[O-])ccc1N1CCOCC1	9.8 µg/mL (≈ 28.7 µM)
O=C(/C=C/Nc1nccs1)C(F)(F)Cl	33.6 µg/mL (≈ 141 µM)
Cc1ccc(-n2c(C)cc(/C=C3\SC(=O)NC3=O)c2C)cc1	< 0.3 µg/mL
CCN(CC)CCNC(=O)COc1ccc(OC)cc1	32 µg/mL (≈ 114 µM)
CC1NCCC2(O)CCCCC12 (stereo unspecified)	> 25.4 µg/mL
O=C(Nc1ccc2c(c1)OCCO2)c1ccoc1	35.7 µg/mL (≈ 146 µM)
CN(C)c1ccc(C(=O)N2CCN(C(=O)C3CCCO3)CC2)cc1 (stereo unspecified)	> 49.7 µg/mL
O=C(Nc1ccc(F)cc1)C1CC2CCC1C2 (stereo unspecified)	25.3 µg/mL (≈ 108 µM)
O=C(COC(=O)c1ccccc1Br)NC(=O)NCc1ccccc1	5.1 µg/mL (≈ 13 µM)
CC(=O)Nc1ccc(NC(=O)CC(C)n2ccnc2)cc1 (stereo unspecified)	40.8 µg/mL (≈ 142 µM)
COc1cc(NS(=O)(=O)c2cn(C)cn2)cc(OC)c1	8.9 µg/mL (≈ 29.9 µM)
Cc1cc(=O)oc2cc(OCCC[n+]3ccccc3)ccc12.[Br-]	53.6 µg/mL
COc1ccc(NC(=O)c2onc(C)c2Cl)cc1	10 µg/mL (≈ 37.5 µM)
O=C(OCCC1Oc2cccnc2NC1=O)c1ccc(F)cc1 (stereo unspecified)	4.8 µg/mL (≈ 15.2 µM)
O=C(Cc1ccccc1F)Nc1cccc(S(=O)(=O)N2CCOCC2)c1	> 56.8 µg/mL
Cc1noc(C)c1C(=O)OCC(=O)NCCc1ccc(S(N)(=O)=O)cc1	> 57.2 µg/mL
CNc1nc(N)c([N+](=O)[O-])c(N2CCCCCC2)n1	39.5 µg/mL (≈ 148 µM)
CCN(CC(=O)NCc1ccc(F)cc1)C(=O)C1CC1C (stereo unspecified)	> 43.9 µg/mL
CC(=O)Oc1ccc2nc(-c3ccc(Br)o3)oc(=O)c2c1	4.2 µg/mL (≈ 12 µM)

Compound	solubility kinetic
CCN(CC(=O)NC1CCS(=O)(=O)C1)c1ccc(S(=O)(=O)N(CC)CC)cc1[N+](=O)[O-] (stereo unspecified)	> 71.5 µg/mL
O=C(Nc1ccccc1Cl)NC1CCCCCCC1	0.4 µg/mL (≈ 1.42 µM)
CC1=C(C)C(C)=C(C#N)C(=C(C#N)C#N)N1	> 31.5 µg/mL
CCOc1ccc(S(=O)(=O)N(CC)CC(=O)N2CCCC2)cc1	> 51.1 µg/mL
O=C(C[n+]1ccccc1)Nc1ccccc1[N+](=O)[O-].[Cl-]	34 µg/mL
O=[N+]([O-])c1ccc(Oc2ccc(OCc3ccccc3)cc2)nc1	< 0.3 µg/mL
CCC(=O)c1c[nH]c(C(=O)NCc2cccc(C(F)(F)F)c2)c1	< 0.4 µg/mL
Cc1cc(C)cc(NC(=O)C2CCCN(c3ncccn3)C2)c1 (stereo unspecified)	0.5 µg/mL (≈ 1.61 µM)
COc1ccc(OC)c(-c2c3c([nH]c(=S)c2C#N)CCCC3)c1	10.4 µg/mL (≈ 31.9 µM)
COc1cc2nc(NC(=O)c3ccco3)sc(=O)c2cc1OC	1 µg/mL (≈ 3.01 µM)
O=C(Cn1cc(C(F)(F)F)ccc1=O)N1CCCc2ccccc21	> 50.4 µg/mL
O=C(CNC(=O)c1cccs1)c1ccc(Cl)cc1	26.4 µg/mL (≈ 94.4 µM)
Cc1cccc(NC(=O)CC(=O)Nc2cccc(C)c2)c1	5.7 µg/mL (≈ 20.2 µM)
O=S(=O)(NCc1ccccn1)c1ccc(Cl)c(C(F)(F)F)c1	16.5 µg/mL (≈ 47 µM)
COc1ccc(CC(=O)NCc2ccccc2)cc1	22.6 µg/mL (≈ 88.5 µM)
Cc1nnc(Nc2ccccc2F)s1	> 31.4 µg/mL
Cc1ccsc1C(=O)N[C@@H](C)c1nnc2ccccn12	> 43 µg/mL
CC(=O)c1c(-c2ccccc2)c2cc(Cl)ccc2n(C)c1=O	38.8 µg/mL (≈ 124 µM)
COc1ccc(S(=O)(=O)NC2CC2)cc1Cl	35.3 µg/mL (≈ 135 µM)
O=c1[nH]c(=S)n(C2CC2)c(O)c1C=NCCN1CCOCC1	> 48.7 µg/mL
CC(=O)c1cccc(NC(=O)/C(=C/c2ccncc2)NC(=O)c2ccccc2)c1	4.2 µg/mL (≈ 10.9 µM)
